Measured values reported in ChEMBL document CHEMBL1123958, “Synthesis and antiviral properties of (E)-5-(2-bromovinyl)-2'-deoxycytidine-related compounds” (J Med Chem, 1988).

System: Vaccinia virus
Assay: Concentration required to reduce vaccinia virus induced cytopathogenicity in rabbit cell kidney culture
Format: functional, organism-based
Settings: Orthopoxvirus vaccinia

| Compound | Concentration [µg/mL] |
| --- | --- |
| Nc1nc(=O)n([C@H]2C[C@H](O)[C@@H](CO)O2)cc1/C=C/Br | > 400 |
| O=c1[nH]c(=O)n([C@H]2C[C@H](O)[C@@H](CO)O2)cc1/C=C/Br [BRIVUDINE] | 10 |
| O=c1nc(-n2cncn2)c(/C=C/Br)cn1C1CC(O)C(CCl)O1 (centres undefined) | > 100 |
| CC(=O)OC[C@H]1O[C@@H](n2cc(/C=C/Br)c(-n3cncn3)nc2=O)C[C@@H]1OC(C)=O | 20 |
| CC(=O)OC[C@H]1O[C@@H](n2cc(/C=C/Br)c(=O)[nH]c2=O)C[C@@H]1OC(C)=O | 40 |
| Cc1cn(C2CC(O)C(CCl)O2)c(=O)nc1-n1cncn1 (centres undefined) | > 10 |
| O=c1nc(-n2cncn2)c(/C=C/Br)cn1[C@H]1C[C@H](O)[C@@H](CO)O1 | 7 |
| CC(=O)OC[C@H]1O[C@@H](n2cc(C)c(-n3cncn3)nc2=O)C[C@@H]1OC(C)=O | > 40 |
| Cc1cn([C@H]2C[C@H](O)[C@@H](CO)O2)c(=O)nc1-n1cncn1 | > 40 |
